Key:
HSV-1 helicase-primase = biological target: T1, HSV-1 helicase-primase (Human herpesvirus 1, UniProt P10189+P10236); assay: HSV-1 DNA-dependent ATPase assay (inhibition of HSV-1 helicase-primase); format: biochemical
T1 construct: made in house; host or cells: Sf21 insect cells triply infected with recombinant baculoviruses (UL5, UL8, UL52)
Source text: A) HSV-1 DNA-Dependent ATP Assay (an in Vitro Assay Based on the Inhibition of HSV-1 Helicase-primase).
HSV-1 helicase-primase holoenzyme was produced in triply infected Sf21 cells using recombinant baculoviruses expressing the UL5, UL8 and UL52 helicase-primase subunits, as described by S. Dracheva et al., J. Biol. Chem. 1995, 270, 14148. The crude enzyme was purified by ammonium sulfate precipitation, Source 15Q® chromatography and Sephacryl® S-300 HR gel filtration (both purification systems can be obtained from Pharmacia Biotech Inc., Montreal, Quebec, Canada), see S. Dracheva et al., supra.
The DNA-dependent ATPase assay, described by J. J. Crute et al., Nucleic Acids Res. 1988, 16, 6585, was modified and used to evaluate the capability of the compounds of Group 1-formula 1 to inhibit HSV-1 helicase-primase activity. The reaction mixtures (80 μL each) contained 40 mM 4-(2-hydroxyethyl)-1-piperazineethanesulfonic acid (HEPES, pH 7.5), 10% (v/v) glycerol, 5.5 mM MgCl2, 1 mM DL-dithiothreitol (DTT), 50 μg/mL acetylated bovine serum albumin, 3.3% (v/v) DMSO, 4 mM ATP, 25 μM single-stranded M13 DNA hybridized to double-tailed 68-mer oligonucleotide and 3 μg/mL HSV-1 helicase-primase. After incubation for 20 min at 34°, formation of inorganic phosphate from hydrolysis of ATP was monitored spectrophotometrically at 650 nm using acidic ammonium molybdate/malachite green reagent, P. A. Lanzetta et al., Anal. Biochem. 1979, 100, 95. DNA-dependent ATPase activity was calculated from the net absorbance change in the presence and absence of inhibition.

HSV-1 strain F or KOS = assay: Inhibition of herpes simplex virus (HSV-1) replication in cell culture (BHK-21 cells, glycoprotein C ELISA); format: cell-based
Procedure: B) Inhibition of Herpes Simplex Virus (HSV-1) Replication in Cell Culture
BHK-21 cells clone 13 (ATCC CCL10) were incubated for two days in 850 cm^2 roller bottles (2×10^7 cells/bottle) with A-MEM medium (Gibco Canada Inc., Burlington, Ontario, Canada) supplemented with 8% (v/v) fetal bovine serum (FBS, Gibco Canada, Inc.). The cells were trypsinized and then 3,000 cells in 100 μL of fresh medium were transferred into each well of a 96-well microtiter plate. The cells were incubated at […] for a period of 3 days to reach a density of 50,000 cells per well. The cells were washed twice with 100 μL of α-MEM supplemented with 2% heat inactivated FBS and incubated for 1-2 hours in 100 μL of the same medium.
Thereafter, the cells were infected with HSV-1 strain F or KOS (multiplicity of infection =0.05 PFU/cell) in 50 μL of α-MEM supplemented with 2% heat inactivated FBS. Following one hour of virus absorption at 37°, the medium was removed and the cells were washed with α-MEM supplemented with 2% heat inactivated FBS (2×100 μL). The cells were incubated with or without 100 μL of the appropriate concentration of test reagent in α-MEM medium supplemented with 2% heat inactivated FBS. After 24 hours of incubation at 37°, the extent of viral replication was determined by an ELISA assay; for instance, the following assay that detects the late glycoprotein C of HSV-1.
Cells were fixed in the microtiter plate with 100 μL of 0.063% glutaraldehyde in phosphate buffered saline for 30 min at room temperature. The microtiter plate was then washed once with casein blocking solution and blocked with 200 μL of the same solution for one hour at room temperature. Thereafter, 100 μL of mAb C11 recognizing the glycoprotein C of HSV-1 (see E. Trybala et al., Journal of General Virology, 1994, 75, 743) was added to each well for two hours at room temperature. The plate was washed three times with phosphate buffered saline containing 0.05% polyoxyethylene (20) sorbitan monooleate. The cells were incubated with 100 μL of sheep anti-mouse IgG horseradish peroxidase for one hour at room temperature in the dark.
The plate was washed three times with 200 μL of the above-noted phosphate buffer saline preparation, and then once with 0.1 M sodium citrate (pH 4.5). Thereafter, 100 μL of orthophenylenediamine dihydrochloride (OPD, Gibco, Canada Inc.) was added to each well. The plate was agitated on a microplate shaker for 30 min in the dark. Color development was monitored at 450 nm using a microplate spectrophotometer.
SAS was used to calculate % inhibition of viral replication and to generate EC50 values.

[1] = Human alphaherpesvirus 1, BHK-21, Group 1 Table 1 entries

T1 sequence (P10192 whole entry): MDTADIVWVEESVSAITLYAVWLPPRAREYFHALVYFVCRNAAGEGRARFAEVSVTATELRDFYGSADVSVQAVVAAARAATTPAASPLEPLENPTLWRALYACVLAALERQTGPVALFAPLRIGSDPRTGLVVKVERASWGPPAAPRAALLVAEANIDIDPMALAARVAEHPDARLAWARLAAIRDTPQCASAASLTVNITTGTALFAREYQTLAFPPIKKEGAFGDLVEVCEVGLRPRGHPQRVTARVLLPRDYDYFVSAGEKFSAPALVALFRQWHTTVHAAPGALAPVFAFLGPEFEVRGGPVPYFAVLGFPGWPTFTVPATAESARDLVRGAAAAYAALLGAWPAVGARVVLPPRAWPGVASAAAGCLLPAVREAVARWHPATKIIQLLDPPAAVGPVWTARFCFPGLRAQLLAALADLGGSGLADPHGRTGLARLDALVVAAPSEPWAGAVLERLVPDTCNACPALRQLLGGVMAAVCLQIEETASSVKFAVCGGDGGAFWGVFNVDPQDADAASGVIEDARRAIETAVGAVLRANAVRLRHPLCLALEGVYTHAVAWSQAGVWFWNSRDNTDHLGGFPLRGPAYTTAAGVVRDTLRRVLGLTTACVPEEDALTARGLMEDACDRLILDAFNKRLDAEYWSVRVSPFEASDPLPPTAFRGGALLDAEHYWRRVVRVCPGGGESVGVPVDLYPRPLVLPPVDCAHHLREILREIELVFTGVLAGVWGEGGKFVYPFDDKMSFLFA
T1 sequence (P10236 whole entry): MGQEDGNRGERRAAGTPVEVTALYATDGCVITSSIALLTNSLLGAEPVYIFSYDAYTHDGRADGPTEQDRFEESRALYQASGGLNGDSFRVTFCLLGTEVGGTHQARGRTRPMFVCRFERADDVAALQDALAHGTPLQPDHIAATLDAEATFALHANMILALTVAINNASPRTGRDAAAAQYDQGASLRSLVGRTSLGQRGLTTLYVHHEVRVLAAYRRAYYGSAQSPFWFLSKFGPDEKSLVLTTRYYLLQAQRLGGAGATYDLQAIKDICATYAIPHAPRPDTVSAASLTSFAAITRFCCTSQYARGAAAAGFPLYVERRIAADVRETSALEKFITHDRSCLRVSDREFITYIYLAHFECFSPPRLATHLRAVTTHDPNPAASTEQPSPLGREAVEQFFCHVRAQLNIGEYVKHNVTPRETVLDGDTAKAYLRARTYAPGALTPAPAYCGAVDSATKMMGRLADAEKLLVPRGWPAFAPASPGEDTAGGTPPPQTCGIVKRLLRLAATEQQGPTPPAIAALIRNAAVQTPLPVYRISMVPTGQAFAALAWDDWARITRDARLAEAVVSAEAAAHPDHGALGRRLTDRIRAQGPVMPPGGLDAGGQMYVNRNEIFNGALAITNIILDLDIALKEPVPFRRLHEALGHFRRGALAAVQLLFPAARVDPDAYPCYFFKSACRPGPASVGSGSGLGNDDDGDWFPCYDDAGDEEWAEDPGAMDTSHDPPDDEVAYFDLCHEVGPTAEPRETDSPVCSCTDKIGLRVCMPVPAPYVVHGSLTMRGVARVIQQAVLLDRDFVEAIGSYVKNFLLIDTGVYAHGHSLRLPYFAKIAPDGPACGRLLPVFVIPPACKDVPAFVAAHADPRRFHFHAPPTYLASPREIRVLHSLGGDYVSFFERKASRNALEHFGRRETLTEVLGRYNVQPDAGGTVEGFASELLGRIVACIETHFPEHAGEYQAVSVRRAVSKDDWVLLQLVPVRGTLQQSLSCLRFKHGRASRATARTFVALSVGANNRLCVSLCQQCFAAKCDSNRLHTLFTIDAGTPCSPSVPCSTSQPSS
T1 sequence (P10189 whole entry): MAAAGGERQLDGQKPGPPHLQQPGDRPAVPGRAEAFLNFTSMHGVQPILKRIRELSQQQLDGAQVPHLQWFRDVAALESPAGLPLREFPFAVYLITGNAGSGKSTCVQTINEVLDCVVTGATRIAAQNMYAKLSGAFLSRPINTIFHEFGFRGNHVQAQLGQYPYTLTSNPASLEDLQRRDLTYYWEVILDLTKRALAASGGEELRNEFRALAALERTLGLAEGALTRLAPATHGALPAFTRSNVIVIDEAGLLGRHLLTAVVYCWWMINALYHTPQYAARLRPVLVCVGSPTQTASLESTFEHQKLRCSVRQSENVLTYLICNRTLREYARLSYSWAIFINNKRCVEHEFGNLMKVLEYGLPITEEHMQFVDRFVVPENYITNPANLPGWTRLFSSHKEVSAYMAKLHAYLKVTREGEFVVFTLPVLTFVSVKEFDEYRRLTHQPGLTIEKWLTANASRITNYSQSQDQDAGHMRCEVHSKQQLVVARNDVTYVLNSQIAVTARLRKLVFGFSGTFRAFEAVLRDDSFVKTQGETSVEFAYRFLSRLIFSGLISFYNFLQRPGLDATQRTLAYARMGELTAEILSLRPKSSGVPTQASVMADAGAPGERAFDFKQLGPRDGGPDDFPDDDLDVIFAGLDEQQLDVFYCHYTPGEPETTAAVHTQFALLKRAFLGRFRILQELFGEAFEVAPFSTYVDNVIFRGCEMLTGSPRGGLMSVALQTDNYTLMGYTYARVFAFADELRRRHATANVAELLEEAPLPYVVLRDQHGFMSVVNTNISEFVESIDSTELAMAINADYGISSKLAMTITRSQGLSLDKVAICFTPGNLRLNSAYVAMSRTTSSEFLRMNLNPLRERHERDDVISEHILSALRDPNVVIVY

Row | Structure (SMILES) | IC50 (HSV-1 helicase-primase; Group 1 Table 1 entries) [nM] | EC50 (HSV-1 strain F or KOS; [1]) [nM] | other results
1 | Nc1nc(-c2ccc(NC(=O)CNCc3ccc(Cl)cc3)cc2)cs1 [Example 5] | 5400 | 42000 | –
2 | Cc1ccc(CNCC(=O)Nc2ccc(-c3csc(N)n3)cc2)cc1 [Example 6] | 19000 | 18000 | –
3 | CNc1nc(-c2ccc(NC(=O)CNCc3ccccc3)cc2)cs1 [Example 7] | – | – | EC50 (HSV-1 strain F or KOS; Human alphaherpesvirus 1, BHK-21, Group 1 Table 3 entries): 4100 nM
4 | COc1ccc(CNCC(=O)Nc2ccc(-c3csc(N)n3)cc2)cc1 [Example 7] | 48000 | 7000 | –
5 | Nc1nc(-c2ccc(NC(=O)CNCc3cccc(F)c3)cc2)cs1 [Example 9] | ~5000 | – | –
6 | Nc1nc(-c2ccc(NC(=O)CN(Cc3ccccc3F)Cc3ccccc3F)cc2)cs1 [Example 17] | 1800 | 4000 | –
7 | Nc1nc(-c2ccc(NC(=O)CN(Cc3cccc(F)c3)Cc3cccc(F)c3)cc2)cs1 [Example 18] | 400 | 100 | –
8 | Nc1nc(-c2ccc(NC(=O)[C@H](Cc3ccccc3)NC(=O)OCc3ccccc3)cc2)cs1 [Example 23] | – | – | IC50 (HSV-1 helicase-primase; Group 1 Table 5 entries): 600 nM; EC50 (HSV-1 strain F or KOS; Human alphaherpesvirus 1, BHK-21, Group 1 Table 5 entries): 94 nM
9 | Nc1nc(-c2ccc(NC(=O)CN(Cc3ccc(Cl)cc3)C(=O)c3ccncc3)cc2)cs1 [Example 55] | – | 95 | –
10 | Nc1nc(-c2ccc(NC(=O)CN(CC3CCCCC3)C(=O)c3ccncc3)cc2)cs1 [Example 57] | – | 950 | –
11 | Nc1nc(-c2ccc(NC(=O)CN(Cc3ccc(F)cc3)C(=O)c3ccccc3)cc2)cs1 [Example 59] | 300 | 15 | –
12 | CC(C)(C)OC(=O)N1CCC(C(=O)N(CC(=O)Nc2ccc(-c3csc(N)n3)cc2)CC2CCCCC2)CC1 [Example 61] | – | 1600 | –
13 | [N-]=[N+]=Nc1ccc(C(=O)N(CC(=O)Nc2ccc(-c3csc(N)n3)cc2)Cc2ccc(Cl)cc2)cc1 [Example 65] | 840 | – | –
14 | Nc1nc(-c2ccc(NC(=O)CN(CCc3ccccc3)C(=O)C3CCCCC3)cc2)cs1 [Example 68] | – | 50 | –
15 | Nc1nc(-c2ccc(NC(=O)CN(Cc3ccc(Cl)cc3)C(=O)CC3CCCCC3)cc2)cs1 [Example 69] | – | 180 | –
16 | Nc1nc(-c2ccc(NC(=O)CN(Cc3ccc(Cl)c(I)c3)C(=O)c3ccncc3)cc2)cs1 [Example 70] | 570 | 160 | –
17 | [N-]=[N+]=Nc1ccc(C(=O)N(CC(=O)Nc2ccc(-c3csc(N)n3)cc2)Cc2ccccc2)cc1 [Example 74] | 280 | 120 | –
18 | Nc1nc(-c2ccc(NC(=O)CN(CC3CCCCC3)C(=O)CC3CCCC3)cc2)cs1 [Example 75] | – | 240 | –
19 | [N-]=[N+]=Nc1ccc(C(=O)N(CC(=O)Nc2ccc(-c3csc(N)n3)cc2)Cc2ccncc2)cc1 [Example 78] | – | 180 | –
20 | CC(C)CN(CC(=O)Nc1ccc(-c2csc(N)n2)cc1)C(=O)C1CCCCC1 [Example 81] | – | 180 | –
21 | Nc1nc(-c2ccc(NC(=O)CN(Cc3ccc(F)cc3)C(=O)C3CCCCC3)cc2)cs1 [Example 83] | – | 6 | –
22 | CC(C)COC(=O)N(CC(=O)Nc1ccc(-c2csc(N)n2)cc1)Cc1ccccc1 [Example 86] | – | 88 | –
23 | CC(C)(C)NC(=O)N(CC(=O)Nc1ccc(-c2csc(N)n2)cc1)Cc1ccccc1 [Example 92] | – | 34 | –
24 | CN(C(=O)N(CC(=O)Nc1ccc(-c2csc(N)n2)cc1)Cc1ccccc1)C(C)(C)C [Example 94] | – | 65 | –

— patent US6288091A, “Antiherpes virus compounds and methods for their preparation and use” (Boehringer Ingelheim Ltd., priority 1999, dated 2001)
